From patent US12583868B2, “JAK inhibitors and methods for synthesizing and using thereof” (GALDERMA HOLDING SA, priority 2020, dated 2026) come the findings set out here.

“Also recorded” adds a separate entry of the source. A value given as a limit tells only on which side of the number the result lay.

Series [1] is described as follows: Protein binding analysis (RED), human plasma. The format is in vitro ADME. The following applies: 5 μM. As to the method: (§1) The protein binding was assessed in plasma of Human, male balb-c mice, male Wistar Han rat, male Göttingen minipig by rapid equilibrium dialysis (RED) devices. After the plasma and buffer phosphate 50 mM pH7.4 were equilibrated at 37° C., the compound was added to plasma to reach a final concentration of 5 μM. An aliquot of plasma was withdrawn immediately. Equilibration under mild agitation was continued for 4 h. The plasma and buffer were sampled and samples were quenched with 4 volumes of acetonitrile and centrifuged. Supernatant was quantified in HPLC/MS/MS to calculate the recovery and the percentage of compound dissolved in the buffer (unbound) and bound to plasma proteins.

Series [2] deals with Salmonella typhimurium TA98 and TA100. Nature of the series: Mini Ames assay (TA98 and TA100). The format is cell-based. The following applies: TA98 & TA100, with and without metabolic activation (S9). The text has this:
The Ames test in micro-method (in 6-well plates=mini Ames) follows the general principles of the standard Ames's technique. The Ames test used strains of bacteria Salmonella typhimurium that carry mutations in the genes involved in histidine synthesis. These strains are auxotrophic mutants, they require histidine for growth but cannot produce it. The assay was used to observe the ability of the test item to induce reverse mutations allowing the bacteria to grow in a histidine-free medium. The number of bacteria that revert and acquire the wild-type ability to grow in the absence of histidine can be estimated by counting the colonies that develop upon incubation. The use of different strains allows the identification of different mechanisms of gene mutation (TA98 for detection of frameshift mutations and TA100 for detection of base pair substitutions). […]
A toxicity assessment was performed on complete nutriment agar plate (with histidine) to define the highest concentration to be used in the genotoxicity assay. […] The first concentration analyzed in the well (6-well plate) was 500 μg per plate followed by 7 serial dilutions (2 times factor of dilution). […] The viability of the positive and negative controls was analyzed for each strain, in the presence or absence of metabolic activation system, and were compared with historical data to validate the study. […]

A short description of series [3]: Intrinsic clearance in hepatocytes, rat. It is filed as in vitro ADME, male Wistar Han rats. The following applies: 2.5 μM. As to the method: (§2) The intrinsic clearance was assessed in cryopreserved Hepatocytes obtained by Human livers donors of mix gender pooled together, male balb-c mouse, male Wistar Han rats and male Göttingen minipig, by looking at the parent compound disappearance. The incubations were performed using a final concentration of viable cells of 1 million/ml (viability above 70%) and test item of 2.5 μM. Incubations were followed up to 2 h. Aliquotes were withdrawn at different time points and reaction quenched with acetonitrile. After centrifugation the supernatant was analyzed by HPLC/MS to quantify the remaining amount of parent in comparison with time 0. The clearance was calculated by fitting the log of the percentage remaining with Graphpad Prism ver.7.

Another series relates to 3T3 murine fibroblasts. The series is described as follows: Phototoxicity (Neutral red uptake). The format is cell-based. Conditions: 3T3 fibroblasts, 7 J/cm2 UVA/UVB. As to the method:
Phototoxicity was evaluated in 3T3 murine fibroblasts. Cells were incubated with different concentrations of test compounds. One plate was then exposed to a dose of 7 J/cm2 (UVA/UVB mimicking usual solar exposure) whereas the other plate was kept in the dark. The treatment medium was then replaced with culture medium and after 24 h cell viability was determined by Neutral red uptake. Concentration leading to 50% decrease of viability was calculated in the absence and in the presence of irradiation. The PIF (photo irritation factor) ratio was then calculated: […]).

Series [4] can be described thus: Protein binding analysis (RED), minipig plasma. The format is in vitro ADME. Conditions: male, Göttingen, pH 7.4, read-out: minipig FU. As to the method:
as §1

Series [5] is described as follows: Intrinsic clearance in hepatocytes, mouse. The format is in vitro ADME, male balb-c mouse. Conditions: 2.5 μM. As to the method: as §2
A short description of the next series: SF logD. It is filed as physicochemical.
The nature of another series: pKa. It is filed as physicochemical.
Another series has as its system p-STAT3Y705 in skin. The series is described as follows: In vivo pharmacodynamy model: IL-6 induced Phospho-STAT3, topical. Set-up: species or system BALB/c ByJ Rj mice; PD/IL6 mouse top @1 mM % vs Tofa: unit not given here. The following applies: topical 1 mM, PG/EtOH 3/7.
Series [6] in a line: Intrinsic clearance in hepatocytes, human. The format is in vitro ADME. The following applies: 2.5 μM. As to the method:
as §2

In the next series the target is T1, hERG channel (Homo sapiens, UniProt Q12809).
T1 construct: expressed in transfected cells; host or cells: CHO-K1
The series is described as follows: In vitro hERG channel whole cell patch clamp. It is filed as cell-based. The following applies: CHO-K1 cells expressing hERG. As to the method:
Blockade of the delayed rectifier potassium current (IKr) encoded by hERG gene (human ether a go go-related gene) can lead to QT interval prolongation and is therefore investigated as part of the cardiac risk assessment. This channel is critical for the repolarisation of the cardiac membrane. The effect of the compounds on IKr was assessed by whole cell patch clamp in stably transfected CHO-K1 cells expressing hERG (Human Ether-a-go-go Related Gene) channel following superfusion at different concentrations up to 30 μM.

A further series can be described thus: Chrom logD pH 7.4. It is filed as physicochemical.
The test system of another series is 44 targets. It is filed as binding. As to the method: An in vitro pharmacology assay was conducted to assess the capability of the compounds to interact with different pharmacological targets when tested at 10 μM in different binding and enzyme/uptake assays. The included targets are indicative of potential effects in major organs and drug-drug interactions.
Compound binding was calculated as a % inhibition of the binding of a radioactively labelled ligand specific for each target. […] […].

A short description of series [7]: Human skin ex vivo: flux through skin and dermis concentration (Franz cells). It is filed as in vitro ADME. Conditions: PG/H2O cream 1 mg/mL, human skin.

T1 sequence (Q12809 whole entry): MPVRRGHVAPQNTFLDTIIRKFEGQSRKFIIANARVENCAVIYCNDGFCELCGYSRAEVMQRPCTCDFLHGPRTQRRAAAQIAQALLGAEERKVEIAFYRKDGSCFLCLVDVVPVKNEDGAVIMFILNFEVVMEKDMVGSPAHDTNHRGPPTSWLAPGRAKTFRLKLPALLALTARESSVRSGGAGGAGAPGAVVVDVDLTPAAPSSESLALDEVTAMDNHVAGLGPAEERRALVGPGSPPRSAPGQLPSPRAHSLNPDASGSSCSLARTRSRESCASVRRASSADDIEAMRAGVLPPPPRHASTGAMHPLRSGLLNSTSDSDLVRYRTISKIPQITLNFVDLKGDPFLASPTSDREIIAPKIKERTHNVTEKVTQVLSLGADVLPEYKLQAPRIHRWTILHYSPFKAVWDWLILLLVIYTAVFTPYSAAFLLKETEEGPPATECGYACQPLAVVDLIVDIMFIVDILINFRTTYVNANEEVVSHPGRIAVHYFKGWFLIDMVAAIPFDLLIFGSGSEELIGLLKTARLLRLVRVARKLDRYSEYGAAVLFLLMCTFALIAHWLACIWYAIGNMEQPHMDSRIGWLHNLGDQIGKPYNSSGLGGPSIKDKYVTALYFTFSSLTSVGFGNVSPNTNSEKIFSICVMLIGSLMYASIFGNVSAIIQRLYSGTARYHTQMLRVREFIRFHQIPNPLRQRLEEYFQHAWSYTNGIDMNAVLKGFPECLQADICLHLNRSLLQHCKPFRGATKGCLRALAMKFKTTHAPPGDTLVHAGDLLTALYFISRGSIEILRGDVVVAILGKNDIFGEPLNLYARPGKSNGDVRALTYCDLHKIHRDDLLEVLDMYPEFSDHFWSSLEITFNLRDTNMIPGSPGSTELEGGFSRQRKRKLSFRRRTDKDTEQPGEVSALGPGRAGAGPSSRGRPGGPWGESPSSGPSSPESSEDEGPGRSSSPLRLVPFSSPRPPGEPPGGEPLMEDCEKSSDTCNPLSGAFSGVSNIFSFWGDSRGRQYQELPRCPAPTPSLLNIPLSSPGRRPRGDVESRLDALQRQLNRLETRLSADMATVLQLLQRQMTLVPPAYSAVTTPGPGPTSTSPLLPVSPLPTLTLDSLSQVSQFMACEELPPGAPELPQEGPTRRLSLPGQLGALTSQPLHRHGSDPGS

The molecule `O=S(=O)(N[C@H]1C[C@@H](N2CCOc3cnc4[nH]ccc4c32)C1)C1CN(C2CC2)C1` [Compound E, 1-Cyclopropyl-N-((cis)-3-(2,3-dihydropyrrolo[3′,2′:5,6]pyrido[3,4-b][1,4]oxazin-1(7H)-yl)cyclobutyl)azetidine-3-sulfonamide] had a hFU in series [1] of 23%. Further, the AMES entry in series [2] was “not considered to be mutagenic; also recorded: Neg/Neg”. Further, the “Intr. Clear. rheps” value in [3] came to 40 microL/min/10 6 cells. Also, in the series on 3T3 murine fibroblasts, the Phototox result is listed as “Neg/Neg”. For the same molecule, in series [4], the fraction unbound at 4 h, 5 μM is 0.32. In addition, in [5], the “Intr. Clear. mheps” value is 28 microL/min/10 6 cells. Also, in “SF logD”, the logD turned out to be 2.1. In the series “pKa”, the pKa is 6.1. In the series on p-STAT3Y705 in skin, the “PD/IL6 mouse top @1 mM % inh vs vehicle” value was determined as 63% and the “PD/IL6 mouse top @1 mM % vs Tofa” value is listed as 0.97. In addition, in series [6], the “Intr. Clear. h heps” value worked out at 6.5 microL/min/10 6 cells. This molecule showed an IC50 against hERG channel of 15 µM. In “Chrom logD pH 7.4”, this molecule registered a chromatographic logD of 0.8. Further, the “Safety panel (Cerep): 44 targets % inh @10 microM Nb of targets > 50% inh” value in the series with 44 targets is on record as 2/44. In the series on 44 targets (10 μM), the “Safety panel (Cerep): targets > 50% inh” value was “(H2 (antago)-alpha2A (antago))”. In addition, in series [7], the dermis concentration turned out to be 2.2 µM and the “measured flux 6-24 hr” value is recorded as < 0.24 ng/cm^2/hr.
